In US20260028330A1, “HETEROARYL CARBOXAMIDE AND RELATED GPR84 ANTAGONISTS AND USES THEREOF” (LIMINAL BIOSCIENCES LIMITED, priority 2022, published 2026):

Target: T1, human GPR84 receptor (Homo sapiens, UniProt Q9NQS5)
T1 construct: host or cells: HEK293 cells, transient transfection
Assay: Gαi biosensor BRET assay in transfected HEK293 cells (antagonism of GPR84 agonist ZQ-16)
Type: cell-based
Conditions: 200 nmol/L ZQ-16; for inhibition at 10 µM / inhibition at 2 µM: HEK293, single concentration; for inhibition at 10 µM: code F = 10 μM; for inhibition at 2 µM: code A = 2 μM
From the text: Background—The following assays can be used for determination of GPR84 activation in living HEK293 cells. The Gαi BRET biosensor (Gagnon et al., 2018; Gales et al., 2006. Nat Struct Mol Biol. 13, 778-86; Saulieres et al., 2012. Nat Chem Biol. 8, 622-30) allows to directly monitor GPR84-mediated activation of Gαi. The Gαi biosensor consists of a Rluc8-tagged Gαi2 subunit, a GFP10-tagged Gγ2 subunit, and an untagged Gβ1. Agonist stimulation and GPR84 activation triggers a physical separation between the RLuc8-Gαi donor and the GFP10-Gγ2 acceptor, resulting in a decrease in BRET signal whose amplitude is correlated to ligand efficacy (Gales et al., 2006). Moreover, signaling functions of GPCRs are tightly regulated by endocytosis, the targeting of receptors to endosomes and their sorting to lysosomes or recycling to the plasma membrane. The early endosomes (EEs) trafficking assay (Namkung et al., 2016. Nat Commun. 7, 12178) uses Rluc8-tagged GPR84 and Renilla GFP (rGFP) attached to the FYVE domain from human endofin/zinc finger FYVE domain-containing protein 16, which binds phosphatidylinositol 3-phosphate in EEs. Agonist stimulation of GPR84-Rluc8 leads to trafficking of the receptor to EEs, and ensuing increase of the donor concentration relative to the rGFP-FYVE acceptor anchored in the same cellular compartment, and thus results in an increase in BRET signal.
Plasmids—The cDNA clones for human GPR84 receptor, human Gαi2, Gβ1, and Gγ2 were obtained from the cDNA Resource Center (www.cdna.org). GFP10 (F64L, S147P, S202F and H231L variant of Aequorea victoria Green Fluorescent Protein) gBlocks gene fragments (Integrated DNA Technologies, IA) and linker were inserted in frame at the N-terminus of human Gγ2. Rluc8 (A55T, C124A, S130A, K136R, A143M, M185V, M253L, and S287L variant of the Renilla reniformis luciferase) gBlocks gene fragment was inserted with linkers in frame in between residues 91 and 92 of Gα2 or at the C-terminus of GPR84. The FYVE domain from human endofin (residues Q739 to K806) attached in frame at the C terminus of a humanized Renilla GFP (rGFP), were synthesized as gBlocks gene fragments.
Bioluminescence Resonance Energy Transfer (BRET) Measurement—HEK293 cells were transfected with GPR84-Rluc8 and rGFP-FYVE for the EEs trafficking biosensor or with GPR84, Gαi2-Rluc8, GFP10-Gγ2, and Gβ1 for the Gαi biosensor. The following day, transiently transfected cells were seeded in 96-well white clear bottom microplates coated with poly-D-lysine and left in culture for 24 hours. Cells were washed once with Tyrode's buffer (140 mmol/L NaCl, 1 mmol/L CaCl2, 2.7 mmol/L KCl, 0.49 mmol/L MgCl2, 0.37 mmol/L NaH2PO4, 5.6 mmol/L glucose, 12 mmol/L NaHCO3, and 25 mmol/L HEPES, pH 7.5) before performing assays in Tyrode's buffer. Test compounds were incubated with cells for 5 (Gui) or 15 (EEs) minutes at 37° C. before addition of 200 nmol/L of the GPR84 agonist ZQ-16 (2-(Hexylthio)-6-hydroxy-4(3H)-pyrimidinone) for 5 minutes at room temperature (Gui) or 30 minutes at 37° C. (EEs). The Rluc8 substrate coelenterazine 400A (Prolume, Lakeside, AZ) was added at a final concentration of 5 μmol/L and BRET readings were collected using an Infinite M1000 microplate reader (Tecan, Morrisville, NC). BRET^2 readings between Rluc8 and GFP10 or rGFP were collected by sequential integration of the signals detected in the 370 to 450 nm (Rluc8) and 510 to 540 nm (GFP10, rGFP) windows. The BRET signal was calculated as the ratio of light emitted by acceptor (GFP10, rGFP) over the light emitted by donor (Rluc8). The values were corrected to net BRET by subtracting the background BRET signal obtained in cells transfected with Rluc8 constructs alone. Ligand-promoted net BRET values were calculated by subtracting vehicle-induced net BRET from ligand-induced net BRET.

T1 sequence (Q9NQS5 whole entry): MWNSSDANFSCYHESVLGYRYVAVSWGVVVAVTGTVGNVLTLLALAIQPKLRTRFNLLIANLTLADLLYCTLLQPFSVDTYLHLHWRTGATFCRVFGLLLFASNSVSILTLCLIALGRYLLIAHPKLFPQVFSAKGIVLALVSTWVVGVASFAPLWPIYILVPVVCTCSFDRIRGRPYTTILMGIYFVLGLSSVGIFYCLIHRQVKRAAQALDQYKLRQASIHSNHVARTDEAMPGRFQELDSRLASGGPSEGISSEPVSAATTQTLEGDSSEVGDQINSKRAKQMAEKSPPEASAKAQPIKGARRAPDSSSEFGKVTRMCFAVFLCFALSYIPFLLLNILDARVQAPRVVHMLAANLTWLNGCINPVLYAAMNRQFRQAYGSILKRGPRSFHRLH

Row | inhibition at 10 µM | IC50 | inhibition at 2 µM | Compound
1 | ≤ 25% |  |  | Cc1ccc(C#CC2CC2)cc1Nc1cn(CC2OCC3(CC3)CO2)cn1 [Compound I-15]
2 | ≤ 25% |  |  | Cc1ccc(C#CC2CC2)cc1C(=O)N(C)c1cn(CC2OCC3(CC3)CO2)nn1 [Compound I-16]
3 |  | ≤ 0.3 µM | > 75% | Cc1ccc(C#CC2CC2)cc1N(C)C(=O)c1cn(CC2OCC3(CC3)CO2)nn1 [Compound I-17]
4 | 50 to 75% |  |  | Cc1cc(C#CC2CC2)ccc1C(=O)N(C)c1cn(CC2OCC3(CC3)CO2)nn1 [Compound I-19]
5 | ≤ 25% |  |  | Cc1cc(C#CC2CC2)ccc1C(=O)Nc1cn(CC2OCC3(CC3)CO2)nn1 [Compound I-20]
6 | > 75% | ≤ 0.3 µM |  | Cc1cc(C#CC2CC2)ccc1N(C)C(=O)c1cn(CC2OCC3(CC3)CO2)nn1 [Compound I-21]
7 | > 75% |  |  | Cc1cc(C#CC2CC2)ccc1CN(C)c1cn(CC2OCC3(CC3)CO2)nn1 [Compound I-22]
8 | > 75% | 0.3 to 1 µM |  | CN(C(=O)c1cn(CC2OCC3(CC3)CO2)nn1)c1cccc(C#CC2CC2)c1 [Compound I-23]
9 | ≤ 25% |  |  | Cc1ccc(C#CC2CC2)cc1N(C)C(=O)c1cn(CCC(=O)N(C)C)nn1 [Compound I-24]
10 |  |  | ≤ 25% | O=C(c1cn(CC2OCC3(CC3)CO2)nn1)N1CCc2c(C#CC3CC3)cccc21 [Compound I-25]
11 | > 75% | 0.3 to 1 µM |  | CN(C)c1ccc(C#CC2CC2)cc1N(C)C(=O)c1cn(CC2OCC3(CC3)CO2)nn1 [Compound I-26]
12 | ≤ 25% |  |  | Cc1cc(OCC(=O)N(C)C)ccc1C(=O)N(C)c1cc(C#CC2CC2)ccc1C [Compound I-27]
13 | 50 to 75% |  |  | O=C(c1cn(CC2OCC3(CC3)CO2)nn1)N1CCCc2c(C#CC3CC3)cccc21 [Compound I-28]
14 |  | ≤ 0.3 µM | > 75% | CN(C(=O)c1cn(CC2OCC3(CC3)CO2)nn1)c1ccc(C#CC2CC2)cc1F [Compound I-29]
15 | > 75% | 1 to 3 µM |  | CN(C(=O)c1cn(CC2OCC3(CC3)CO2)nn1)c1cc(C#CC2CC2)ccc1F [Compound I-31]
16 | > 75% | ≤ 0.3 µM |  | Cc1cc(C#CC2CC2)cc(F)c1N(C)C(=O)c1cn(CC2OCC3(CC3)CO2)nn1 [Compound I-32]
17 | ≤ 25% |  |  | Cc1ccccc1N(C)C(=O)c1cn(CC2OCC3(CC3)CO2)nn1 [Compound I-33]
18 | ≤ 25% |  |  | Cc1ccc(C#CC2CC2)cc1N(C)C(=O)c1ncc(OCC(=O)N(C)C)cc1C [Compound I-34]
19 | 25 to 50% |  |  | Cc1ccc(C#CC2CC2)cc1N(C)C(=O)c1c(C)cc(OCC(=O)N(C)C)cc1C [Compound I-35]
20 | 25 to 50% |  |  | Cc1ccc(C#CC2CC2)nc1N(C)C(=O)c1cn(CC2OCC3(CC3)CO2)nn1 [Compound I-36]
21 | > 75% | ≤ 0.3 µM |  | Cc1ccc(C#CC2CC2)c(F)c1N(C)C(=O)c1cn(CC2OCC3(CC3)CO2)nn1 [Compound I-37]
22 |  | ≤ 0.3 µM | > 75% | CN(C(=O)c1cn(CC2OCC3(CC3)CO2)nn1)c1ccc(C#CC2CC2)cc1Br [Compound I-38]

Row | inhibition at 10 µM | IC50 | inhibition at 2 µM | Compound
23 | 25 to 50% |  |  | Cc1cc(C#CC2CC2)ccc1NCc1cn(CC2OCC3(CC3)CO2)nn1 [Compound I-39]
24 | > 75% |  |  | Cc1cc(C#CC2CC2)ccc1N(C)Cc1cn(CC2OCC3(CC3)CO2)nn1 [Compound I-40]
25 |  | ≤ 0.3 µM | > 75% | CN(C(=O)c1cn(CC2OCC3(CC3)CO2)nn1)c1c(F)cc(C#CC2CC2)cc1F [Compound I-43]
26 | > 75% | 0.3 to 1 µM |  | CN(C(=O)c1cn(CC2OCC3(CC3)CO2)nn1)c1cc(C#CC2CC2)ccc1Br [Compound I-44]
27 | > 75% | 0.3 to 1 µM |  | CN(C(=O)c1cn(CC2OCC3(CC3)CO2)nn1)c1cc(C#CC2CC2)ccc1C1CC1 [Compound I-47]
28 | > 75% |  |  | Cc1ccc(C#CC2CC2)c2c1N(C(=O)c1cn(CC3OCC4(CC4)CO3)nn1)CCC2 [Compound I-48]
29 | 25 to 50% |  |  | CN(C(=O)c1cn(CC2OCC3(CC3)CO2)nn1)c1cc(C#CC2CC2)ccc1O [Compound I-49]
30 | ≤ 25% |  |  | Cc1ccc(N(C)C(=O)c2cn(CC3OCC4(CC4)CO3)nn2)nc1C#CC1CC1 [Compound I-50]
31 | > 75% |  |  | CN(Cc1ccc(C#CC2CC2)cc1C1CC1)c1cn(CC2OCC3(CC3)CO2)nn1 [Compound I-51]
32 | 25 to 50% |  |  | Cc1cc(C#CC2CC2)cc2c1C(N(C)c1cn(CC3OCC4(CC4)CO3)nn1)CC2 (stereo not shown) [Compound I-53]
33 | > 75% |  |  | Cc1ccc(C#CC2CC2)cc1N(C)S(=O)(=O)c1cn(CC2OCC3(CC3)CO2)nn1 [Compound I-55]
34 | > 75% |  |  | Cc1cc(C#CC2CC2)ccc1N(C)S(=O)(=O)c1cn(CC2OCC3(CC3)CO2)nn1 [Compound I-56]
35 |  | ≤ 0.3 µM | > 75% | CN(C(=O)c1cn(CC2OCC3(CC3)CO2)cn1)c1ccc(C#CC2CC2)cc1F [Compound I-59]
36 | > 75% | 0.3 to 1 µM |  | Cc1cc(C#CC2CC2)cc(C)c1N(C)C(=O)c1cn(CC2OCC3(CC3)CO2)nn1 [Compound I-60]
37 | 50 to 75% |  |  | Cc1c(N(C)C(=O)c2ccc(C#CC3CC3)cc2)nnn1CC1OCC2(CC2)CO1 [Compound I-61]
38 | ≤ 25% |  |  | Cc1c(NC(=O)c2ccc(C#CC3CC3)cc2)nnn1CC1OCC2(CC2)CO1 [Compound I-62]
39 | ≤ 25% |  |  | Cc1c(N(C)C(=O)c2cccc(C#CC3CC3)c2)nnn1CC1OCC2(CC2)CO1 [Compound I-63]
40 | ≤ 25% |  |  | Cc1c(NC(=O)c2cccc(C#CC3CC3)c2)nnn1CC1OCC2(CC2)CO1 [Compound I-64]
41 |  |  | ≤ 25% | Cc1cc(C#CC2CC2)c2c(c1)CCC2N(C)c1cn(CC2OCC3(CC3)CO2)nn1 (stereo not shown) [Compound I-81]
42 | ≤ 25% |  |  | CN(c1ccc(C#CC2CC2)cc1)c1cn(CC2OCC(C)(C)CO2)nn1 [Compound I-82]
43 |  | ≤ 0.3 µM | > 75% | Cc1cc(C#CC2CC2)ccc1N(C(=O)c1cn(CC2OCC3(CC3)CO2)nn1)C(C)C [Compound I-84]
44 | 25 to 50% |  |  | Cc1cc(C#CC2CC2)ccc1/N=C(\OC(C)C)c1cn(CC2OCC3(CC3)CO2)nn1 [Compound I-85]

Row | Compound | inhibition at 10 µM | IC50 | inhibition at 2 µM
45 | Cc1cc(C#CC2CC2)ccc1NC(=O)c1cn(CC2OCC3(CC3)CO2)nn1 [Compound I-18] | ≤ 25% |  | 
46 | Cc1ccccc1NC(=O)c1cn(CC2OCC3(CC3)CO2)nn1 [Compound I-30] | ≤ 25% |  | 
47 | Cc1cc(C#CC2CC2)cc(C)c1NC(=O)c1cn(CC2OCC3(CC3)CO2)nn1 [Compound I-41] | ≤ 25% |  | 
48 | O=C(Nc1c(F)cc(C#CC2CC2)cc1F)c1cn(CC2OCC3(CC3)CO2)nn1 [Compound I-42] | ≤ 25% |  | 
49 | O=C(Nc1cc(C#CC2CC2)ccc1C1CC1)c1cn(CC2OCC3(CC3)CO2)nn1 [Compound I-45] | ≤ 25% |  | 
50 | Cc1cc(C#CC2CC2)ccc1OC(=O)c1cn(CC2OCC3(CC3)CO2)nn1 [Compound I-46] | 25 to 50% |  | 
51 | Cc1cc(C#CC2CC2)ccc1N(C(=O)c1cn(CC2OCC3(CC3)CO2)nn1)C1CC1 [Compound I-83] |  | ≤ 0.3 µM | > 75%
